Earlier results on two compounds are cited in EP2343054A1, “Pellets and microparticles of pravastatin sodium and a process of making them” (LEK Pharmaceuticals d.d., priority 2010, dated 2011).

For data set [1] the following is noted: pH 3 or less, as found in the stomach.
The conditions of data set [2]: pH of 7.0.

Structures are written as SMILES.

As to `CC[C@H](C)C(=O)O[C@H]1C[C@H](O)C=C2C=C[C@H](C)[C@H](CC[C@@H](O)C[C@@H](O)CC(=O)O)[C@H]21` [Pravastatin sodium], the “stability at low pH” value in data set [1] is “very unstable”. Besides, in data set [2], the “partition coefficient (octanol/water)” value is recorded as 0.23.

For the compound `CC[C@H](C)C(=O)O[C@H]1C[C@H](O)C=C2C=C[C@H](C)[C@H](CC[C@@H](O)C[C@@H](O)CC(=O)O)[C@H]21` [pravastatin, (+)-(3R, 5R) -3,5-dihydroxy-7-[(1 S, 2S, 6S, 8S, 8aR)-6-hydroxy-2-methyl-8-[(S)-2-methylbutyryloxy]-1,2,6,7,8,8a-hexahydro-1-naphthyl] heptanoate], the average oral absorption is on record as 34%. Further, for the setting “oral”, the absolute bioavailability is recorded as 17%.
